# Test results reported in patent US6380238B1, “Indoline derivatives as 5-HT2B and or 5-HTC receptor ligands” (Vernalis Research Limited, priority 1998, dated 2002).
# Structures can show the parent of a compound that is named as a salt. Where two headings read alike, the source gives them in different places.
# Key:
# [1] = target: 5-HT2A receptor (Homo sapiens, UniProt P28223); assay: Functional activity, FLIPR calcium assay in CHO cells expressing human 5-HT2A; format: cell-based; set-up: expressed in transfected cells; host or cells: CHO cells; conditions: for Emax: CHO, read-out: h5-HT2A Relative Efficacy (%)
# Experimental: (§1) The functional activity of compounds of formula (I) was assayed using a Fluorimetric Imaging Plate reader (FLIPR). CHO cells expressing the human 5-HT2C or human 5-HT2A receptors were counted and plated into standard 96 well microtitre plates on the day before testing to give a confluent monolayer. The cells were then dye loaded with the calcium sensitive dye, Fluo-3-AM. Unincorporated dye was removed using an automated cell washer to leave a total volume of 100 μL/well of assay buffer (Hanks balanced salt solution containing 20 mM Hepes and 2.5 mM probenecid). The drug (dissolved in 50 μL of the assay buffer) was added at a rate of 70 μL/sec to each well of the FLIPR 96 well plate during fluorescence measurements. The measurements were taken at 1 sec intervals and the maximum fluorescent signal was measured (approx 10-15 secs after drug addition) and compared with the response produced by 10 μM 5-HT (defined as 100%) to which it was expressed as a percentage response (relative efficacy). Dose response curves were constructed using Graphpad Prism (Graph Software Inc.).
# [2] = target: T1, 5-HT2C receptor (Homo sapiens, UniProt P28335); assay: Functional activity, FLIPR calcium assay in CHO cells expressing human 5-HT2C; format: cell-based; set-up: expressed in transfected cells; host or cells: CHO cells; conditions: for Emax: CHO, read-out: h5-HT2C Relative Efficacy (%)
# T1 sequence (P28335 33-458): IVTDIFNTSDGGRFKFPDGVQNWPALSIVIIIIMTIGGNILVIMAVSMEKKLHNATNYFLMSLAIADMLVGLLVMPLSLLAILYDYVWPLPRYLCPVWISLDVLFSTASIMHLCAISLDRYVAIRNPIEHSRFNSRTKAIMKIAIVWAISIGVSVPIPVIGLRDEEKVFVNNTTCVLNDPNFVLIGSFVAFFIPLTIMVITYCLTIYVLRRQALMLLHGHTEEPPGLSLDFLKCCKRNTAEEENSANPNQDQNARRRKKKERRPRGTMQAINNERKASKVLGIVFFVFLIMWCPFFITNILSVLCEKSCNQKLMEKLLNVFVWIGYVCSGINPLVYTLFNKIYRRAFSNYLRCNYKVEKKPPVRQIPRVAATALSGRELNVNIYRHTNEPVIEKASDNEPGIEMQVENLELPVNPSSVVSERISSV
# Experimental: as §1
# [3] = FLIPR, CHO cells, Fluo-3-AM, read-out: h5-HT2C EC50
# Chain of 5-HT2A receptor (P28223 whole entry): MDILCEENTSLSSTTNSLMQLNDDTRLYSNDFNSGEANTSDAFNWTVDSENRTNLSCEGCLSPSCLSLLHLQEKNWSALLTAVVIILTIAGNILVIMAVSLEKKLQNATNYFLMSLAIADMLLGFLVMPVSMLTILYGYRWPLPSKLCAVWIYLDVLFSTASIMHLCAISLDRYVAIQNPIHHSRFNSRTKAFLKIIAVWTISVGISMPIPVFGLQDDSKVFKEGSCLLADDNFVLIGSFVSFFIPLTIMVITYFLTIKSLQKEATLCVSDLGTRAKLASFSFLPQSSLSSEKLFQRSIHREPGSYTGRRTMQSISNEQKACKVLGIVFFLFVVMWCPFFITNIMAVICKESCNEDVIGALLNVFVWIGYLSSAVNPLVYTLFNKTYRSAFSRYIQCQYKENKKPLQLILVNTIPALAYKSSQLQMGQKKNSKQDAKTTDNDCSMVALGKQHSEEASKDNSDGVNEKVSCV
Structure (SMILES),EC50 [1],Emax [1],EC50 [2],Emax [2],melting point,further results
C[C@H](N)CN1CCc2ccc(F)cc21 [Example 9],5600 nM,52%,253 nM,89%,–,–
"CC(N)CN1CCc2ccc(Cl)cc21 (racemic) (as salt: hydrochloride) [Example 1, (RS)-1-(6-Chloroindolin-1-yl)-2-propylamine Hydrochloride]",–,–,–,–,262 °C,–
CC(N)CN1CCc2ccc(C(F)(F)F)cc21 (stereo not shown) (as salt: fumarate),–,–,–,–,154 to 158 °C,–
CC(N)CN1CCc2c(OCc3ccccc3)cccc21 (stereo not shown) (as salt: HCl),–,–,–,–,188 to 190 °C,–
C[C@@H](N)CN1CCc2ccc(Br)cc21 [Example 18],–,7%,870 nM,27%,–,–
CCc1cccc2c1N(C[C@H](C)N)CC2 [Example 37],2730 nM,27%,391 nM,69%,–,–
"COc1ccc2c(c1)N(CC(C)N)CC2 (racemic) [Example 2, (RS)-1-(6-Methoxyindolin-1-yl)-2-propylamine Hydrochloride]",1000 nM,63%,100 nM,77%,–,–
Cc1ccc2c(c1)N(CC(C)N)CC2 (stereo not shown) (as salt: HCl),–,–,–,–,178 to 179 °C,–
CSc1ccc2c(c1)N(C[C@H](C)N)CC2 [Example 39],260 nM,75%,4 nM,87%,–,–
C[C@@H](CN1CCc2ccc(Br)cc21)NCc1ccncc1 (as salt: HCl),–,–,–,–,202 to 204 °C,–
"C[C@H](N)CN1CCc2cc(F)c(I)cc21 (as salt: fumarate) [Example 61, (S)-1-(5-Fluoro-6-iodoindolin-1-yl)-2-propylamine Fumarate]",–,–,–,–,185 to 187 °C,–
C[C@H](N)CN1CCc2ccc(-c3ccccc3)cc21.O=C(O)/C=C/C(=O)O,–,–,–,–,153 to 154 °C,–
C[C@H](N)CN1CCc2ccc(Cl)c(F)c21 [Example 27],1980 nM,41%,233 nM,75%,–,–
CCC(N)CN1CCc2ccc(Cl)cc21 (stereo not shown) (as salt: HCl),–,–,–,–,188 to 192 °C,–
C[C@@H](N)CN1CCc2cccc(Br)c21 (as salt: fumarate) [Example 19],–,–,–,–,197 °C,–
C[C@@H](CN1CCc2ccc(Br)cc21)NCC1CCCCC1 (as salt: HCl),–,–,–,–,208 to 210 °C,–
CSc1cc2c(cc1F)CCN2CC(C)N (stereo not shown) (as salt: fumarate) [Example 30],–,–,–,–,96 to 100 °C,–
COc1cccc2c1N(C[C@H](C)N)CC2 (as salt: fumarate),–,–,–,–,155 to 156 °C (dec.),–
CSc1cc2c(cc1F)CCN2CC(C)N (stereo not shown) [Example 30],72 nM,88%,0.1 nM,95%,–,–
Cc1cccc2c1CCN2C[C@H](C)N (as salt: fumarate) [Example 32],–,–,–,–,161 to 162 °C,–
"C[C@H](N)CN1CCc2cc(F)c(I)cc21 [Example 61, (S)-1-(5-Fluoro-6-iodoindolin-1-yl)-2-propylamine Fumarate]",2180 nM,49%,26 nM,68%,–,–
CC(C)CCN[C@@H](C)CN1CCc2ccc(Br)cc21 (as salt: HCl),–,–,–,–,161 to 163 °C,–
CC(C)CN[C@@H](C)CN1CCc2ccc(Br)cc21 (as salt: HCl),–,–,–,–,151 to 153 °C,–
"COc1ccc2c(c1)N(CC(C)N)CC2 (racemic) (as salt: hydrochloride) [Example 2, (RS)-1-(6-Methoxyindolin-1-yl)-2-propylamine Hydrochloride]",–,–,–,–,142 to 143 °C,–
C[C@H](N)CN1CCc2c(Cl)cccc21 [Example 38],2560 nM,26%,320 nM,63%,–,–
C[C@@H](CN1CCc2ccc(Br)cc21)NCC1CC1 (as salt: HCl),–,–,–,–,155 to 156 °C,–
"NCCN1CCc2ccc([N+](=O)[O-])cc21 [Example 53, 2-(6-Nitroindolin-1-yl)-1-ethylamine Fumarate]",–,20%,–,86%,–,"EC50 ([1]; FLIPR, CHO cells, Fluo-3-AM, read-out: h5-HT2A EC50): 2310 nM; EC50 [2, 3]: 266 nM"

Structure (SMILES),EC50 [1],Emax [1],EC50 [2],Emax [2],melting point,further results
"Cc1ccc2c(c1)N(C[C@H](C)N)CC2 [Example 64, (S)-1-(6-Methylindolin-1-yl)-2-propylamine Fumarate]",–,30%,303 nM,66%,–,–
C[C@H](N)CN1CCc2ccc(Cl)c(Cl)c21 (as salt: fumarate) [Example 23],–,–,–,–,176 to 178 °C,–
"NCCN1CCc2ccc(Br)cc21 (as salt: fumarate) [Example 50, 2-(6-Bromoindolin-1-yl)-1-ethylamine Fumarate]",–,–,–,–,203 to 206 °C,–
"C[C@H](N)CN1CCc2ccc(N3CCOCC3)cc21 (as salt: fumarate) [Example 49, (S)-1-[6-(4-Morpholinyl)indolin-1-yl]-2-propylamine Fumarate]",–,–,–,–,188 to 191 °C (dec.),–
CCCSc1ccc2c(c1)N(C[C@H](C)N)CC2 [Example 41],–,–,67 nM,83%,–,–
C[C@H](N)CN1CCc2cc(F)c(F)cc21 (as salt: fumarate) [Example 22],–,–,–,–,165 °C (dec.),–
C[C@H](N)CN1CCc2ccc(-c3cccnc3)cc21 (as salt: fumarate) [Example 47],–,–,–,–,155 °C (dec.),–
CC(C)Sc1ccc2c(c1)N(C[C@H](C)N)CC2 (as salt: fumarate) [Example 42],–,–,–,–,164 to 165 °C,–
"NCCN1CCc2ccc(Cl)cc21 (as salt: fumarate) [Example 51, 2-(6-Chloroindolin-1-yl)-1-ethylamine Fumarate]",–,–,–,–,195 to 196 °C,–
C[C@H](N)CN1CCc2cc(F)ccc21 [Example 29],3170 nM,18%,503 nM,68%,–,–
C[C@H](N)CN1CCc2ccc(Cl)c(Cl)c21 [Example 23],1350 nM,34%,354 nM,76%,–,–
C[C@@H](N)CN1CCc2cccc(Br)c21 [Example 19],–,21%,3800 nM,34%,–,–
C[C@H](N)CN1CCc2c(F)cccc21 [Example 35],–,30%,727 nM,51%,–,–
Cc1cccc2c1CCN2C[C@H](C)N [Example 32],1520 nM,26%,611 nM,63%,–,–
CCSc1ccc2c(c1)N(C[C@H](C)N)CC2 [Example 40],836 nM,64%,3 nM,95%,–,–
Cc1cc2c(cc1Cl)N(C[C@H](C)N)CC2 [Example 14],3700 nM,55%,2120 nM,71%,–,–
CCSc1cc2c(cc1F)CCN2C[C@H](C)N [Example 31],314 nM,72%,2 nM,92%,–,–
CC(C)Sc1ccc2c(c1)N(C[C@H](C)N)CC2 [Example 42],4200 nM,43%,54 nM,88%,–,–
"Cc1cc2c(cc1F)CCN2C[C@H](C)N [Example 62, (S)-1-(5-Fluoro-6-methylindolin-1-yl)-2-propylamine Fumarate]",–,–,329 nM,54%,–,–
C[C@H](N)CN1CCc2cc(F)cc(Cl)c21 [Example 17],7500 nM,40%,616 nM,76%,–,–
"C[C@H](N)CN1CCc2ccc(N3CCOCC3)cc21 [Example 49, (S)-1-[6-(4-Morpholinyl)indolin-1-yl]-2-propylamine Fumarate]",–,5%,–,69%,–,"EC50 [2, 3]: 5480 nM"
"C[C@H](N)CN1CCc2cc(F)c(C(F)(F)F)cc21 [Example 60, (S)-1-(5-Fluoro-6-trifluoromethylindolin-1-yl)-2-propylamine Fumarate]",–,–,36 nM,81%,–,–
C[C@H](N)CN1CCc2cccc(Br)c21 [Example 20],–,17%,750 nM,68%,–,–
C[C@H](N)CN1CCc2cc(Cl)ccc21 [Example 28],1540 nM,63%,238 nM,75%,–,–
C[C@H](N)CN1CCc2cc(Br)ccc21 [Example 33],2930 nM,51%,257 nM,75%,–,–
C[C@H](N)CN1CCc2ccc(-c3cccnc3)cc21 [Example 47],–,5%,3540 nM,33%,–,–
